Laboratory results taken from ChEMBL document CHEMBL4422621, “Novel chalcone and flavone derivatives as selective and dual inhibitors of the transport proteins ABCB1 and ABCG2” (Eur J Med Chem, 2019).

What was measured:
ABCG2 (BCRP) [1] = target: T1, ABCG2 (BCRP) (Homo sapiens, UniProt Q9UNQ0); experiment: (§1) Inhibition of ABCG2 (unknown origin) expressed in MDCK II BCRP cells assessed as effect on heophorbide A accumulation at 5 to 10 uM after 120 mins by flow cytometric analysis relative to control; format: cell-based; details: MDCK II BCRP cells expressing ABCG2, probe pheophorbide A
T1 sequence (Q9UNQ0 whole entry): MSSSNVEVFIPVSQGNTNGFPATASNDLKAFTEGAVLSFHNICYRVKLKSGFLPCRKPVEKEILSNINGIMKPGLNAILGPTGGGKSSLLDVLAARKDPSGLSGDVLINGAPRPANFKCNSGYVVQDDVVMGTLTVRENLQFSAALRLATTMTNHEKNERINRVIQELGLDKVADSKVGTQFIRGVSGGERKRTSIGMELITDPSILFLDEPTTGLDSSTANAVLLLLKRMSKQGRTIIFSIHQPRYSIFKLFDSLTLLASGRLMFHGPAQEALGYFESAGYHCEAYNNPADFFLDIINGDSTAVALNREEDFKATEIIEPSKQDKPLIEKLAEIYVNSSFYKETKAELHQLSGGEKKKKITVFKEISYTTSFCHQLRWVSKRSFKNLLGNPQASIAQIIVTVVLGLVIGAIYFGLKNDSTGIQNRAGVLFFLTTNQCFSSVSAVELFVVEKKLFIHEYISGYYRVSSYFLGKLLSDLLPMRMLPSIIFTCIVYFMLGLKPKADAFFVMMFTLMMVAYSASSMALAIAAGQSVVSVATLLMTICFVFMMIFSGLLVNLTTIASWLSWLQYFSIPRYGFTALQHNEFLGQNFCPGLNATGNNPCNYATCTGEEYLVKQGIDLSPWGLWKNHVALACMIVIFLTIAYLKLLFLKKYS

[2] = target: Multidrug resistance-associated protein 1 (Homo sapiens, UniProt P33527); experiment: Inhibition of ABCC1 in human […] cells at 5 to 10 uM preincubated for 30 mins followed by calcein AM addition and measured every 60 secs for 1 hr by fluorescence assay; format: cell-based
[3] = target: ATP-dependent translocase ABCB1 (Homo sapiens, UniProt P08183); experiment: Inhibition of ABCB1 in human A2780/ADR cells at 5 to 10 uM preincubated for 30 mins followed by calcein AM addition and measured every 60 secs for 1 hr by fluorescence assay; format: cell-based
[4] = target: T2, Broad substrate specificity ATP-binding cassette transporter ABCG2 (Homo sapiens, UniProt Q9UNQ0); experiment: Inhibition of ABCG2 (unknown origin) expressed in MDCK II BCRP cells assessed as effect on pheophorbide A accumulation after 120 mins by flow cytometric analysis; format: cell-based
T2 sequence (Q9UNQ0 whole entry): T1 sequence (Q9UNQ0 whole entry)

[5] = target: T2, Broad substrate specificity ATP-binding cassette transporter ABCG2; experiment: as §1; format: cell-based; details: 2 h
[6] = Growth inhibition of MDCK2 cells expressing BCRP (unknown origin) after 72 hrs by MTT assay; format: ADME, cell-based, Canis lupus familiaris, MDCK-II; details: dog
ABCG2 (BCRP) [7] = experiment: Therapeutic index, ratio of GI50 for MDCK2 cells expressing BCRP (unknown origin) to EC50 for ABCG2 (unknown origin) co-expressed in MDCK2 cells expressing BCRP (unknown origin); format: toxicity, cell-based; details: dog
[8] = Growth inhibition of MDCK2 cells after 72 hrs by MTT assay; format: cell-based, Canis lupus familiaris, MDCK-II; details: dog

Sequence of ATP-dependent translocase ABCB1 (P08183 whole entry): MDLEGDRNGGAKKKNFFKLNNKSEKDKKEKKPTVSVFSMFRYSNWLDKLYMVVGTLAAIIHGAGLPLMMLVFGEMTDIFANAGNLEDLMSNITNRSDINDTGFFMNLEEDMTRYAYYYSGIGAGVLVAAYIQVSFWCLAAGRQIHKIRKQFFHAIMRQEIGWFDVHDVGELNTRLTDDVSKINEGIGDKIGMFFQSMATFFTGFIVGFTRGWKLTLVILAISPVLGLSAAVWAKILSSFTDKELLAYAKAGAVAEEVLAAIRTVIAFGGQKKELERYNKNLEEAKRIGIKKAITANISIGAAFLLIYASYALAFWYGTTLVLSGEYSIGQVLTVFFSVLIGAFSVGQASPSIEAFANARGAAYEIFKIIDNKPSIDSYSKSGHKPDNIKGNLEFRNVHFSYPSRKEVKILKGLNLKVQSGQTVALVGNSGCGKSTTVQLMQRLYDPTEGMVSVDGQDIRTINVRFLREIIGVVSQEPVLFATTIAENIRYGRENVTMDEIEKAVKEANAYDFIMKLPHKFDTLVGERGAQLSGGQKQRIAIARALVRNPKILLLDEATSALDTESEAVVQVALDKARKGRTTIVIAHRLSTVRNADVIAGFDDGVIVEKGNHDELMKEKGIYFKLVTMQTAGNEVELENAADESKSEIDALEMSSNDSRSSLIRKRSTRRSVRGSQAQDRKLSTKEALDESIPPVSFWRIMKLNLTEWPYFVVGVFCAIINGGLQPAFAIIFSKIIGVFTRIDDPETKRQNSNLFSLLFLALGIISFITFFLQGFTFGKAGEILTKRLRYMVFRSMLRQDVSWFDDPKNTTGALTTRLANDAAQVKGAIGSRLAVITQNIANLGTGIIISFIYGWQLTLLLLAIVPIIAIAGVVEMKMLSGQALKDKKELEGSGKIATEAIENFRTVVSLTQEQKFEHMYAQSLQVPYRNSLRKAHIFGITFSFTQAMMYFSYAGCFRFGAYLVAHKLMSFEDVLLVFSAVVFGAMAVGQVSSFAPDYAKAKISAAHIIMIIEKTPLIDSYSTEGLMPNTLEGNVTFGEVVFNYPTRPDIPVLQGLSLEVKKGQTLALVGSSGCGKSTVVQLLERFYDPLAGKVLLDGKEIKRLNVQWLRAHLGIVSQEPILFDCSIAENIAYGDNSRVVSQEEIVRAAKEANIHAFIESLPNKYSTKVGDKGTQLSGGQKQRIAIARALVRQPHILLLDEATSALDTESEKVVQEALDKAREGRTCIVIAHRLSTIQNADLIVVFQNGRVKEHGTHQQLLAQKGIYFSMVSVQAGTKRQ
Sequence of Multidrug resistance-associated protein 1 (P33527 whole entry): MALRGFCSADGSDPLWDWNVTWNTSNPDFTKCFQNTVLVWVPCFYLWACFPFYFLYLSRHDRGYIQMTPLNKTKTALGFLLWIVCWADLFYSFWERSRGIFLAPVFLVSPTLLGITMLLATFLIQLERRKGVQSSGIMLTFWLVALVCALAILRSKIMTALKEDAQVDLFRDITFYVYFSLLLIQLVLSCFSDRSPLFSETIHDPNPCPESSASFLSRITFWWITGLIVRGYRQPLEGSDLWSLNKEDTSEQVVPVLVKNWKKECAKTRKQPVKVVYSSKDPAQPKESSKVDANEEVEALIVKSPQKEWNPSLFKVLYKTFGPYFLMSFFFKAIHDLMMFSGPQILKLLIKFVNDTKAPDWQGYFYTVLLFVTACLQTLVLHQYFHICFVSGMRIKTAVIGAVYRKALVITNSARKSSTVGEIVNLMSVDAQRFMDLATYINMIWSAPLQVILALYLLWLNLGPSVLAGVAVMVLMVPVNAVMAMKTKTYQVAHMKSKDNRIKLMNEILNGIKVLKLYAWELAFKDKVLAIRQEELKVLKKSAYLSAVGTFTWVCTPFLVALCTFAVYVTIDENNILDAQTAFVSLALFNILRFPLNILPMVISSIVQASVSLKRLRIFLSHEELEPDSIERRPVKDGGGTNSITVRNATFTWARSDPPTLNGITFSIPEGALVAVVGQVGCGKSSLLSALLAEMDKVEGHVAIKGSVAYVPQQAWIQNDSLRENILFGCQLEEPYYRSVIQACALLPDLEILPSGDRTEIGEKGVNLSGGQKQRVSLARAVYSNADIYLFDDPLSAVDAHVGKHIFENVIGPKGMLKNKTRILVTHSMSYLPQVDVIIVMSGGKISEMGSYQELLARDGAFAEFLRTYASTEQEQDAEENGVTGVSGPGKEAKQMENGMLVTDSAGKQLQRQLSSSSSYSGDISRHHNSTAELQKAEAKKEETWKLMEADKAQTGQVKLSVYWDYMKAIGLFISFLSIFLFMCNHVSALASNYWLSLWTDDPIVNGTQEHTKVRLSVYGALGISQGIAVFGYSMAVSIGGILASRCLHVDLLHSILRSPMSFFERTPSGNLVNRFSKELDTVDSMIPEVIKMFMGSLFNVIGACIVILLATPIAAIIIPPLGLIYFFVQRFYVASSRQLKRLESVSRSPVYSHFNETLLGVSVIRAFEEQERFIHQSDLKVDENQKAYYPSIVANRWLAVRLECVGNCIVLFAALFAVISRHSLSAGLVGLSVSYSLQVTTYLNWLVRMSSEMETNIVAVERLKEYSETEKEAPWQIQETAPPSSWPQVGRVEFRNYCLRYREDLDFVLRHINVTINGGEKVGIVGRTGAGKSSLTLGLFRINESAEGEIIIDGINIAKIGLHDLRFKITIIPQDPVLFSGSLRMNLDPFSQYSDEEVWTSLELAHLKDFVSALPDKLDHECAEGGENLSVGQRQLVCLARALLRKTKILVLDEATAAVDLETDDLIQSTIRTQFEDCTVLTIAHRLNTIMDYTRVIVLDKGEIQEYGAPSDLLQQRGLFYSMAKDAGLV

O=C(/C=C/c1cccs1)c1ccccc1O
inhibition at 2 h (ABCG2 (BCRP) [1]): ≥ 25% | inhibition (INH) [2]: Not Active | inhibition (INH) [3]: Not Active | IC50 [4]: 10.5 µM

O=C(COc1ccc(C(=O)/C=C/c2ccc(OCc3ccc(Cl)cc3Cl)cc2)cc1)Nc1ccc2c(c1)COC2=O
inhibition (INH) [5]: Not Active

COc1ccc(NC(=O)COc2ccc(C(=O)/C=C/c3ccc(Cl)cc3)cc2)cc1OC
inhibition at 2 h (ABCG2 (BCRP) [1]): ≥ 25% | IC50 [4]: 6.95 µM

O=C(COc1ccc(C(=O)/C=C/c2ccc([N+](=O)[O-])cc2)cc1)Nc1ccc2c(c1)COC2=O
inhibition (INH) [5]: Not Active

O=C(COc1c(-c2ccccc2)oc2ccccc2c1=O)Nc1ccc2c(c1)COC2=O
inhibition at 2 h (ABCG2 (BCRP) [1]): ≥ 25% | IC50 [4]: 13.1 µM

COc1cc(C(=O)/C=C/c2cc(OC)c(OC)c(OC)c2)ccc1OCC(=O)Nc1ccc2c(c1)COC2=O
inhibition at 2 h (ABCG2 (BCRP) [1]): ≥ 25% | IC50 [4]: 11.4 µM

COc1cc(/C=C/C(=O)c2ccc(OCC(=O)Nc3ccc4c(c3)COC4=O)cc2)cc(OC)c1OC
inhibition at 2 h (ABCG2 (BCRP) [1]): ≥ 25% | IC50 [4]: 8.44 µM

CCCCOc1ccc(/C=C/C(=O)c2ccc(O)cc2)cc1
inhibition at 2 h (ABCG2 (BCRP) [1]): ≥ 25% | inhibition (INH) [2]: Not Active | inhibition (INH) [3]: Not Active | IC50 [4]: 7.29 µM

O=C(COc1c(-c2ccco2)oc2ccccc2c1=O)Nc1ccc2c(c1)COC2=O
inhibition (INH) [5]: Not Active

O=C(COc1ccc(C(=O)/C=C/c2ccc(OCc3ccc(Cl)cc3)cc2)cc1)Nc1ccc2c(c1)COC2=O
inhibition (INH) [5]: Not Active

Cc1ccc(-c2c(OCC(=O)Nc3ccc(Br)cc3)oc3ccccc3c2=O)cc1
inhibition (INH) [5]: Not Active

O=C(/C=C/c1cccs1)c1ccc(O)cc1
inhibition at 2 h (ABCG2 (BCRP) [1]): ≥ 25% | inhibition (INH) [2]: Not Active | inhibition (INH) [3]: Not Active | IC50 [4]: 18.2 µM

O=C(/C=C/c1ccco1)c1ccccc1O
inhibition at 2 h (ABCG2 (BCRP) [1]): ≥ 25% | inhibition (INH) [2]: Not Active | inhibition (INH) [3]: Not Active | IC50 [4]: 16.2 µM

CCOc1ccc(/C=C/C(=O)c2ccc(OCC(=O)NCc3ccc4c(c3)OCO4)cc2)cc1
inhibition (INH) [5]: Not Active

COc1cc(/C=C/C(=O)c2cccc(O)c2)cc(OC)c1OC
inhibition at 2 h (ABCG2 (BCRP) [1]): ≥ 25% | inhibition (INH) [2]: Not Active | inhibition (INH) [3]: Not Active | IC50 [4]: 4.28 µM

COc1cccc(/C=C/C(=O)c2ccc(OCC(=O)Nc3ccc(OC)c(OC)c3)cc2)c1
inhibition at 2 h (ABCG2 (BCRP) [1]): ≥ 25% | GI50 at 72 h [6]: 36.7 µM | selectivity ratio (ABCG2 (BCRP) [7]): 10.3 | GI50 at 72 h [8]: 33.2 µM | IC50 [4]: 3.58 µM

O=C(/C=C/c1ccc(OCc2ccccc2)cc1)c1ccc(O)cc1
inhibition at 2 h (ABCG2 (BCRP) [1]): ≥ 25% | inhibition (INH) [2]: Not Active | inhibition (INH) [3]: Not Active | IC50 [4]: 9.21 µM

COc1ccc(/C=C/C(=O)c2cccc(OCC(=O)Nc3ccc(OC)c(OC)c3)c2)cc1OC
inhibition at 2 h (ABCG2 (BCRP) [1]): ≥ 25% | IC50 [4]: 6.33 µM

O=C(COc1ccc(C(=O)/C=C/c2ccccc2)cc1)Nc1ccc2c(c1)COC2=O
inhibition (INH) [5]: Not Active

O=C(COc1ccc(C(=O)/C=C/c2c(F)cccc2F)cc1)NCc1ccc2c(c1)OCO2
inhibition (INH) [5]: Not Active

O=C(COc1ccc(C(=O)/C=C/c2c(F)cccc2F)cc1)Nc1ccc2c(c1)COC2=O
inhibition at 2 h (ABCG2 (BCRP) [1]): ≥ 25% | IC50 [4]: 10.9 µM

O=C(COc1ccc(C(=O)/C=C/c2ccc(OCc3ccccc3)cc2)cc1)Nc1ccc2c(c1)COC2=O
inhibition (INH) [5]: Not Active

O=C(/C=C/c1ccccc1C(F)(F)F)c1ccc(O)cc1
inhibition at 2 h (ABCG2 (BCRP) [1]): ≥ 25% | inhibition (INH) [2]: Not Active | inhibition (INH) [3]: Not Active | IC50 [4]: 4.91 µM

COc1ccc(-c2oc3ccccc3c(=O)c2OCC(=O)Nc2ccc3c(c2)COC3=O)cc1OC
inhibition (INH) [5]: Not Active

COc1ccc(/C=C/C(=O)c2ccc(OCC(=O)Nc3ccc4c(c3)COC4=O)cc2)cc1
inhibition (INH) [5]: Not Active

O=C(/C=C/c1ccc(OCc2ccc(Cl)cc2)cc1)c1ccc(O)cc1
inhibition at 2 h (ABCG2 (BCRP) [1]): ≥ 25% | inhibition (INH) [2]: Not Active | inhibition (INH) [3]: Not Active | IC50 [4]: 20 µM

COc1ccc(/C=C/C(=O)c2cccc(OCC(=O)Nc3ccc4c(c3)COC4=O)c2)cc1OC
inhibition at 2 h (ABCG2 (BCRP) [1]): ≥ 25% | IC50 [4]: 12 µM

CCOc1ccc(/C=C/C(=O)c2ccc(O)cc2)cc1
inhibition at 2 h (ABCG2 (BCRP) [1]): ≥ 25% | inhibition (INH) [2]: Not Active | inhibition (INH) [3]: Not Active | IC50 [4]: 6.44 µM

COc1ccc(-c2c(OCC(=O)Nc3ccc(Br)cc3)oc3ccccc3c2=O)cc1
inhibition (INH) [5]: Not Active

O=C(/C=C/c1ccc(OCc2ccc(Cl)cc2Cl)cc1)c1ccc(O)cc1
inhibition (INH) [5]: Not Active | inhibition (INH) [2]: Not Active | inhibition (INH) [3]: Not Active

COc1ccc(/C=C/C(=O)c2ccc(OCC(=O)Nc3ccc4c(c3)COC4=O)cc2)cc1OC
inhibition at 2 h (ABCG2 (BCRP) [1]): ≥ 25% | IC50 [4]: 6.63 µM

CCCCOc1ccc(/C=C/C(=O)c2ccc(OCC(=O)Nc3ccc4c(c3)COC4=O)cc2)cc1
inhibition (INH) [5]: Not Active

CCCOc1ccc(/C=C/C(=O)c2ccc(OCC(=O)Nc3ccc4c(c3)COC4=O)cc2)cc1
inhibition (INH) [5]: Not Active

COc1cc(-c2oc3ccccc3c(=O)c2OCC(=O)Nc2ccc3c(c2)COC3=O)cc(OC)c1OC
inhibition at 2 h (ABCG2 (BCRP) [1]): ≥ 25% | IC50 [4]: 9 µM

O=C(COc1ccc(C(=O)/C=C/c2cccs2)cc1)Nc1ccc2c(c1)COC2=O
inhibition (INH) [5]: Not Active

O=C(/C=C/c1ccco1)c1ccc(O)cc1
inhibition (INH) [5]: Not Active | inhibition (INH) [2]: Not Active | inhibition (INH) [3]: Not Active

COc1ccc(/C=C/C(=O)c2ccc(OCC(=O)NCc3ccc4c(c3)OCO4)cc2)cc1
inhibition at 2 h (ABCG2 (BCRP) [1]): ≥ 25% | IC50 [4]: 10 µM

COc1cc(-c2c(OCC(=O)Nc3cccc4ccccc34)oc3ccccc3c2=O)cc(OC)c1OC
inhibition at 2 h (ABCG2 (BCRP) [1]): ≥ 25% | IC50 [4]: 10.5 µM

O=C(COc1ccc(C(=O)/C=C/c2ccco2)cc1)Nc1ccc2c(c1)COC2=O
inhibition (INH) [5]: Not Active

O=C(/C=C/c1c(F)cccc1F)c1ccc(O)cc1
inhibition at 2 h (ABCG2 (BCRP) [1]): ≥ 25% | inhibition (INH) [2]: Not Active | inhibition (INH) [3]: Not Active | IC50 [4]: 7.22 µM

O=C(COc1ccc(C(=O)/C=C/c2ccccc2Cl)cc1)Nc1ccc2c(c1)COC2=O
inhibition (INH) [5]: Not Active

O=C(COc1c(-c2cccs2)oc2ccccc2c1=O)Nc1ccc2c(c1)COC2=O
inhibition (INH) [5]: Not Active

COc1ccc(-c2oc3ccccc3c(=O)c2OCC(=O)Nc2ccc3c(c2)COC3=O)cc1
inhibition (INH) [5]: Not Active

Cc1ccc(-c2oc3ccccc3c(=O)c2OCC(=O)Nc2ccc3c(c2)COC3=O)cc1
inhibition (INH) [5]: Not Active

COc1ccc(NC(=O)COc2ccc(C(=O)/C=C/c3ccco3)cc2)cc1OC
inhibition at 2 h (ABCG2 (BCRP) [1]): ≥ 25% | IC50 [4]: 5.4 µM

CCOc1ccc(/C=C/C(=O)c2ccc(OCC(=O)Nc3ccc4c(c3)COC4=O)cc2)cc1
inhibition at 2 h (ABCG2 (BCRP) [1]): ≥ 25% | IC50 [4]: 20.1 µM

COc1cccc(/C=C/C(=O)c2ccc(OCC(=O)Nc3ccc4c(c3)COC4=O)cc2)c1
inhibition (INH) [5]: Not Active

O=C(COc1ccc(/C=C/C(=O)c2ccc(F)cc2)cc1)Nc1ccc2c(c1)COC2=O
inhibition (INH) [5]: Not Active
